Patent US11981661B2, “Heterocyclic compounds” (Hoffmann-La Roche Inc., priority 2020, dated 2024)

Molecular target: T1, MAGL (Homo sapiens, UniProt Q99685)
T1 sequence (Q99685 1-303): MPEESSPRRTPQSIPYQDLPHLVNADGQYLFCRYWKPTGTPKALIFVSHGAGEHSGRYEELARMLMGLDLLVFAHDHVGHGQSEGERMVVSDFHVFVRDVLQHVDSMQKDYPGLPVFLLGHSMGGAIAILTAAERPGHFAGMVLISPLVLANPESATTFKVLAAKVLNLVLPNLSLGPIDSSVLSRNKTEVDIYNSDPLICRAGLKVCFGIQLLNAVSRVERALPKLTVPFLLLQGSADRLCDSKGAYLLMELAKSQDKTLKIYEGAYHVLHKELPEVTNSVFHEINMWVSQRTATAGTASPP
Assay: 2-AG assay (MAGL inhibitory activity, hydrolysis of 2-arachidonoylglycerol followed by mass spectrometry)
Type: biochemical
Conditions: 50 pM MAGL, 8 μM 2-arachidonoylglycerol, 15 min preincubation, 30 min incubation at RT, concentration range 12.5 μM to 0.8 pM
Protocol: Compounds were profiled for MAGL inhibitory activity by determining the enzymatic activity by following the hydrolysis of the natural substrate 2-arachidonoylglycerol resulting in arachidonic acid, which can be followed by mass spectrometry. This assay is hereinafter abbreviated “2-AG assay”.
The 2-AG assay was carried out in 384 well assay plates (PP, Greiner Cat #784201) in a total volume of 20 μL. Compound dilutions were made in 100% DMSO (VWR Chemicals 23500.297) in a polypropylene plate in 3-fold dilution steps to give a final concentration range in the assay from 12.5 μM to 0.8 pM. 0.25 μL compound dilutions (100% DMSO) were added to 9 μL MAGL in assay buffer (50 mM TRIS (GIBCO, 15567-027), 1 mM EDTA (Fluka, 03690-100 mL), 0.01% (v/v) Tween. After shaking, the plate was incubated for 15 min at RT. To start the reaction, 10 μL 2-arachidonoylglycerol in assay buffer was added. The final concentrations in the assay was 50 pM MAGL and 8 μM 2-arachidonoylglyerol. After shaking and 30 min incubation at RT, the reaction was quenched by the addition of 40 μL of ACN containing 4 μM of d8-arachidonic acid. The amount of arachidonic acid was traced by an online SPE system (Agilent Rapidfire) coupled to a triple quadrupole mass spectrometer (Agilent 6460). A C18 SPE cartridge (G9205A) was used in an ACN/water liquid setup. The mass spectrometer was operated in negative electrospray mode following the mass transitions 303.1→259.1 for arachidonic acid and 311.1→267.0 for d8-arachidonic acid. The activity of the compounds was calculated based on the ratio of intensities [arachidonic acid/d8-arachidonic acid].

Compound	IC50 [nM]
CC(C)c1ccc(N(C)c2ccc(C3CN(C(=O)CC[C@@H]4COC(=O)N4)C3)cn2)cc1 [Example 94, (4R)-4-[3-[3-[6-(4-Isopropyl-N-methyl-anilino)-3-pyridyl]azetidin-1-yl]-3-oxo-propyl]oxazolidin-2-one]	10
O=C1N[C@H](CCC(=O)N2CC3(CCN(Cc4cccc(S(=O)(=O)C(F)(F)F)c4)CC3)C2)CO1 [Example 195, (4R)-4-[3-Oxo-3-[7-[[3-(trifluoro-methylsulfonyl)phenyl]methyl]-2,7-diazaspiro [3.5]nonan-2-yl]propyl] oxazolidin-2-one]	28
CS(=O)(=O)c1cc(Cl)ccc1-c1ccc(C2CN(C(=O)CCC3CNC(=O)N3)C2)cc1 (single isomer, unassigned) [Example 217, (−)- or (+)-4-[3-[3-[4-(4-Chloro-2-methylsulfonyl-phenyl)phenyl]azetidin-1-yl]-3-oxo-propyl]imidazolidin-2-one]	33
CC(C)(C)Cn1nncc1-c1ccc(C2CN(C(=O)CC[C@@H]3COC(=O)N3)C2)cc1 [Example 81, (4R)-4-[3-[3-[4-[3-(2,2-Dimethyl-propyl)triazol-4-yl]phenyl]azetidin-1-yl]-3-oxo-propyl]oxazolidin-2-one]	7
CN(c1ccccc1)c1ccc(C2CN(C(=O)CC[C@@H]3COC(=O)N3)C2)cc1 [Example 71, (4R)-4-[3-[3-[4-(N-Methylanilino)phenyl]azetidin-1-yl]-3-oxo-propyl]oxazolidin-2-one]	1
O=C1N[C@H](CCC(=O)N2CC(c3ccc(C4CC5(CCC5)C4)nc3)C2)CO1 [Example 163, (4R)-4-[3-Oxo-3-[3-(6-spiro[3.3]heptan-2-yl-3-pyridyl)azetidin-1-yl]propyl] oxazolidin-2-one]	9
CS(=O)(=O)c1cccc(CN2CCC3(CC2)CN(C(=O)CC[C@@H]2COC(=O)N2)C3)c1 [Example 193, (4R)-4-[3-[7-[(3-Methyl-sulfonylphenyl)methyl]-2,7-diazaspiro[3.5]nonan-2-yl]-3-oxo-propyl] oxazolidin-2-one]	794

Next, values leading:

IC50 [nM]	Compound
254	O=C1N[C@@H](CCC(=O)N2CC(c3ccc(C4(C(F)(F)F)CC4)cc3)C2)CO1 [Example 21, (4S)-4-[3-Oxo-3-[3-[4-[1-(trifluoromethyl)cyclo-propyl]phenyl]azetidin-1-yl]propyl]oxazolidin-2-one]
7	CC(C)(C)c1ccc(C2CN(C(=O)CC[C@@H]3COC(=O)N3)C2)nc1 [Example 72, (4R)-4-[3-[3-(5-tert-Butyl-2-pyridyl)azetidin-1-yl]-3-oxo-propyl]oxazolidin-2-one]
19	O=C1CCC(CCC(=O)N2CC(OCc3ccc(C(F)(F)F)cc3F)C2)N1 (single isomer, unassigned; (+)) [Example 2, (+)-5-[3-[3-[[2-Fluoro-4-(trifluoromethyl)phenyl]methoxy]azetidin-1-yl]-3-oxo-propyl]pyrrolidin-2-one]
48	O=C1N[C@H](CCC(=O)N2CC(OCc3ccc(S(=O)(=O)C(F)(F)F)cc3)C2)CO1 [Example 166, (4R)-4-[3-Oxo-3-[3-[[4-(trifluoro-methylsulfonyl)phenyl]methoxy]azetidin-1-yl]propyl]oxazolidin-2-one]
246	O=C1N[C@H](CCC(=O)N2CC3(CC(Cc4cnc(C(F)(F)F)nc4)C3)C2)CO1 [Example 182, (4R)-4-[3-Oxo-3-[6-[[2-(trifluoro-methyl)pyrimidin-5-yl]methyl]-2-azaspiro[3.3]heptan-2-yl]propyl] oxazolidin-2-one]
1550	O=C1N[C@@H](CCC(=O)N2CC(OCc3ccc(C(F)(F)F)cc3F)C2)CO1 [Example 19, (4S)-4-[3-[3-[[2-Fluoro-4-(trifluoromethyl)phenyl]methoxy]azetidin-1-yl]-3-oxo-propyl]oxazolidin-2-one]
39	O=C1N[C@H](CCC(=O)N2CC(c3cccc(C4(C(F)(F)F)CC4)c3)C2)CO1 [Example 109, (4R)-4-[3-Oxo-3-[3-[3-[1-(trifluoromethyl)cyclopropyl]phenyl]azetidin-1-yl]propyl]oxazolidin-2-one]
